Measurements from patent publication US12503484B2, “Androstane derivatives with activity as pure or predominantly pure stimulators of SERCA2a for the treatment of heart failure” (Seismic Pharmaceuticals, priority 2019, dated 2025).
Where a name gives a salt, the structure may show the parent alone.

Experiments:
[1] = Acute toxicity in the mouse; conditions: Albino Swiss CD-1, in vivo
Experimental: The acute toxicity of the tested compound CVie214-salt and CVie216-salt have been determined in the mouse (Albino Swiss CD-1, body weight 30 g). Compounds have been orally administered or intravenously injected at increasing doses to identify the dose causing 50% mortality. Mortality occurred within 30 min after the administration and survival after 24 h.
As comparison, the acute toxicity for the reference compounds Digoxin and Istaroxime were also included. Digoxin refers to literature data (www.lookchem.com, Reference for Digoxin intravenous: Afifi A M, Ammar E M. Pharmacological Research Communications. Vol. 6, Pg. 417, 1974; Reference for Digoxin oral: Archives Internationales de Pharmacodynamie et de Therapie. Vol. 153, Pg. 436, 1965) (Table 3).

STZ diabetic rats = assay: Haemodynamics in streptozotocin diabetic rats (echocardiography); assay type: in vivo, rat
Experimental: CVie214 and CVie216 were tested in a diabetic rat model. Briefly, rats were injected with streptozotocin (STZ). After 7-9 weeks from STZ injection, rats were submitted to transthoracic echocardiographic and Doppler evaluation performed under urethane anesthesia. Two-dimensionally guided M-mode recordings were used to obtain short-axis measurements of left ventricular end-diastolic diameter (LVEDD), left ventricular end-systolic diameter (LVESD), posterior (PW) and septal (SW) diastolic wall thickness according to the American Society of Echocardiography guidelines (Lang R M et al., Eur J Echocardiography 2006, 7:79-108). Fractional shortening was calculated as FS=(LVEDD−LVESD)/LVEDD. Relative wall thickness was calculated as PWTd+IVSTd/LVEDD. Mitral inflow was measured by pulsed Doppler at the tips of mitral leaflets from an apical 4-chamber view to obtain early and late filling velocities (E, A) and deceleration time of early filling velocity (DT). The deceleration slope was calculated as E/DT ratio. The mitral deceleration index was calculated as DT/E ratio. Tissue Doppler Imaging (TDI) was evaluated from the apical 4-chamber view to record septal mitral annular movements, i.e., peak myocardial systolic (s′) and early and late diastolic velocity (e′ and a′).
After baseline hemodynamic measurements were taken, the rats were administered Digoxin, CVie214, CVie216 and compared to control. Digoxin, used as reference drug, was intravenously infused at 0.11 mg/kg/min for 15 min and echocardiographic parameters measured after 1 h. CVie214-salt and CVie216-salt were intravenously infused in STZ diabetic rats at 0.2 mg/kg/min and echocardiographic parameters were measured after 15 min and 30 min.
Tables 4-6 show the haemodynamic parameters in STZ diabetic rats for Digoxin, CVie214-salt, and Cvie216-salt.

Phosphodiesterase PDE3 = assay: Receptor binding assay panel: Phosphodiesterase PDE3; assay type: biochemical, Human; conditions: 10 μM
[2] = target: Protein Tyrosine Kinase, ABL1 (Homo sapiens (Human), UniProt P00519); assay: Receptor binding assay panel: Protein Tyrosine Kinase, ABL1; assay type: biochemical
Chain of Protein Tyrosine Kinase, ABL1 (P00519 whole entry): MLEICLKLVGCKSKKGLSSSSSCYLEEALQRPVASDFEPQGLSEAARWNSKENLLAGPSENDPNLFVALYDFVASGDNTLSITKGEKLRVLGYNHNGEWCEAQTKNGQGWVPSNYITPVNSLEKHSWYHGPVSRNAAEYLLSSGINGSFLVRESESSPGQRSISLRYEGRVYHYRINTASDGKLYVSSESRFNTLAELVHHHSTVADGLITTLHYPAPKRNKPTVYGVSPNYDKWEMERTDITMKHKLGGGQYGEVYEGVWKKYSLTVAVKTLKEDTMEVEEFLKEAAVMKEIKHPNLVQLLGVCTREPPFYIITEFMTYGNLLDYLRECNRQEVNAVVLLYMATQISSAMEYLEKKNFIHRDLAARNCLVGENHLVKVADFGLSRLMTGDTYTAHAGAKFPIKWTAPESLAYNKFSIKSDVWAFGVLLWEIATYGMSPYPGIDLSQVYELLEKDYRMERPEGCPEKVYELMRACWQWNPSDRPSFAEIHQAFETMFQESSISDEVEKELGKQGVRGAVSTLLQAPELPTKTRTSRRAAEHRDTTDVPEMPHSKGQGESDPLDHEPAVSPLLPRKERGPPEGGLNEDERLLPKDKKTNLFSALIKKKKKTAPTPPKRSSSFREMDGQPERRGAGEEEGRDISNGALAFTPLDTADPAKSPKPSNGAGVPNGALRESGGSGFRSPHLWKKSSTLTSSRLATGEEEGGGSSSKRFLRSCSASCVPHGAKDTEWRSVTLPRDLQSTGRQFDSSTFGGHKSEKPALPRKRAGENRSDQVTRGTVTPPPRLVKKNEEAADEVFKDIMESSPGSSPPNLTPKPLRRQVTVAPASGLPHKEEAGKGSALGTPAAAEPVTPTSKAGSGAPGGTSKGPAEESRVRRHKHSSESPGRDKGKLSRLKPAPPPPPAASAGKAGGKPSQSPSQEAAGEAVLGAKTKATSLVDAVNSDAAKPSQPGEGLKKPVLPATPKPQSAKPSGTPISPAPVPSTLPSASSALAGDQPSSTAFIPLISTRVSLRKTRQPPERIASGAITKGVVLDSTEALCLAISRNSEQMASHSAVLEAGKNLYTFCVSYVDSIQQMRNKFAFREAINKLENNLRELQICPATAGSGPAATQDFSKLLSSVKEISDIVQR

Adenosine A2A = Adenosine A2A (Homo sapiens (Human), UniProt P29274); assay: Receptor binding assay panel: Adenosine A2A
Chain of Adenosine A2A (P29274 whole entry): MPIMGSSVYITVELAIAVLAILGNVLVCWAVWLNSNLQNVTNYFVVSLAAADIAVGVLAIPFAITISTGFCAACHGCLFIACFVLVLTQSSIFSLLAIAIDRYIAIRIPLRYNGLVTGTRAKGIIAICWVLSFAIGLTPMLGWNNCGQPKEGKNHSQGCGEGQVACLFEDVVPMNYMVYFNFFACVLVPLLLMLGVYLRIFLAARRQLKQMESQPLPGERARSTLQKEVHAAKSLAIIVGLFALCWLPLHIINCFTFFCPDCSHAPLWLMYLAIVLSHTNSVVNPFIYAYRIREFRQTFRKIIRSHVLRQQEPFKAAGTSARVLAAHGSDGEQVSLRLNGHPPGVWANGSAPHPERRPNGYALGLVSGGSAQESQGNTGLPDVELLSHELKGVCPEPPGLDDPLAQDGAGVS

Adrenergic α1A = Adrenergic α1A (Rattus norvegicus (Rat), UniProt P43140); assay: Receptor binding assay panel: Adrenergic α1A
Chain of Adrenergic α1A (P43140 whole entry): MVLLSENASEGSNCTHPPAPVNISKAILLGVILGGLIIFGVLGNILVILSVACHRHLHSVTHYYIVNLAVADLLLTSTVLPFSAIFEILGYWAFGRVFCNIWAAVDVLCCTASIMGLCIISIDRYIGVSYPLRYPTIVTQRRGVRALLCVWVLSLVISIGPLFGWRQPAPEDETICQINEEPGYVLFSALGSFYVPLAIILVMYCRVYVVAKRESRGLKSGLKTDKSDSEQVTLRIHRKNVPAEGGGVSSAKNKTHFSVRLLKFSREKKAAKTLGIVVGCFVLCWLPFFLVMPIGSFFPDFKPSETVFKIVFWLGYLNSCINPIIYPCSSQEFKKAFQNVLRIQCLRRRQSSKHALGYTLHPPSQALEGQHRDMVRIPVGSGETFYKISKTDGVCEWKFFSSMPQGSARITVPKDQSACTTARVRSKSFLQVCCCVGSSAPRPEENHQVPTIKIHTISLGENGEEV

Adrenergic α1B = Adrenergic α1B (Rattus norvegicus (Rat), UniProt P15823); assay: Receptor binding assay panel: Adrenergic α1B
Aldosterone = Aldosterone (Rattus norvegicus (Rat), UniProt P22199); assay: Receptor binding assay panel: Aldosterone
Chain of Aldosterone (P22199 whole entry): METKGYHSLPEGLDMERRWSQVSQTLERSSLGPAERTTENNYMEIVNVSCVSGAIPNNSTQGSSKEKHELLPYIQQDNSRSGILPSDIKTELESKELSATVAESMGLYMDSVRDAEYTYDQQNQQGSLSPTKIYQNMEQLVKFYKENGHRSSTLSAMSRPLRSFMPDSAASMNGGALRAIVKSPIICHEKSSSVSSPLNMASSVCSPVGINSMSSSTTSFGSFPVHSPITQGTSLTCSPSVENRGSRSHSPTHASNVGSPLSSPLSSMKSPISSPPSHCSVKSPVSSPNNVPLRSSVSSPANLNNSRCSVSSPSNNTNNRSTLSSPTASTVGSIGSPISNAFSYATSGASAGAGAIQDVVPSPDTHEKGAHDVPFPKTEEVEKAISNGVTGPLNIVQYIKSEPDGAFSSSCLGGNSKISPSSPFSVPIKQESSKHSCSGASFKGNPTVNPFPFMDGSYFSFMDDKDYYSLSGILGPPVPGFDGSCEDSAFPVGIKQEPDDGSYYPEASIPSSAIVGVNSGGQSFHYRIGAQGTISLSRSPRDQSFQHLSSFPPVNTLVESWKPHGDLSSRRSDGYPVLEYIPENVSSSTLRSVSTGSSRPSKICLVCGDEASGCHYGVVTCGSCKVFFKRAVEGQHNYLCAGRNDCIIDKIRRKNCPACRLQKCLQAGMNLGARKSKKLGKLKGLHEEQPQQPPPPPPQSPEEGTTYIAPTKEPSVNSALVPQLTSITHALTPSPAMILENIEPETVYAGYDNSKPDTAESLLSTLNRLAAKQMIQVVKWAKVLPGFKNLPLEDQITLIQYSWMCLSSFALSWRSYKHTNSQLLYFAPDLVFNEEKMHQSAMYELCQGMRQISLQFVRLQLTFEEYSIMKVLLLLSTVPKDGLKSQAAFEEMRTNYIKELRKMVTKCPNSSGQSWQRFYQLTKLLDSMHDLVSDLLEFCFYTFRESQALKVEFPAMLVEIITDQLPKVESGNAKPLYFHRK

[3] = test system: Calcium Channel L-type, Dihydropyridine; assay: Receptor binding assay panel: Calcium Channel L-type, Dihydropyridine; parameters: species or system rat; conditions: 10 μM
Estrogen ERα = Estrogen ERα (Homo sapiens (Human), UniProt P03372); assay: Receptor binding assay panel: Estrogen ERα
Chain of Estrogen ERα (P03372 whole entry): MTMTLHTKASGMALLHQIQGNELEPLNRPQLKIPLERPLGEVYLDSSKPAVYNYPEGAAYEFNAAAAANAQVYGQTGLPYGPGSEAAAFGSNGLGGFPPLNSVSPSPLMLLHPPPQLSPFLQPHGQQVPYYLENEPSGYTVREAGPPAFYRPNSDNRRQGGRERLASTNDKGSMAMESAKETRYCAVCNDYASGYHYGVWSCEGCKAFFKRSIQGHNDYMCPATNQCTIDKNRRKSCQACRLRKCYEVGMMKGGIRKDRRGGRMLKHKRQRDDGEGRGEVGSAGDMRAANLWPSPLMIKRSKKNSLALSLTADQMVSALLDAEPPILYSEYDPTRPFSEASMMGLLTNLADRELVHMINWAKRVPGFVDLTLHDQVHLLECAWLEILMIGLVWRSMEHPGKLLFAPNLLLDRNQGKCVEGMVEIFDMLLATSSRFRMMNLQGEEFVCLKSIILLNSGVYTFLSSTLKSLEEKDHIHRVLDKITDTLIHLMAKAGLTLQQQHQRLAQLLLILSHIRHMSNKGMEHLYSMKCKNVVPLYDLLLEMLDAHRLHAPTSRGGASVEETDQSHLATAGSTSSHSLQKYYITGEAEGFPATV

[4] = test system: GABAA, Flunitrazepam, Central; assay: Receptor binding assay panel: GABAA, Flunitrazepam, Central; parameters: species or system rat; conditions: 10 μM
Experimental: (§1) Radioligand binding to a panel of receptors was carried out by Eurofins on crude membrane preparations according to published procedures and by using appropriate reference standard (Eurofin, Taiwan, compound code CVie216-3 (1226840), study #TW04-0004235, quote #TW04-0004235-Q04, for Cvie Therapeutics Limited, Taiwan). […] was tested at the concentration of 10 μM.

Histamine H1 = Histamine H1 (Homo sapiens (Human), UniProt P35367); assay: Receptor binding assay panel: Histamine H1
Chain of Histamine H1 (P35367 whole entry): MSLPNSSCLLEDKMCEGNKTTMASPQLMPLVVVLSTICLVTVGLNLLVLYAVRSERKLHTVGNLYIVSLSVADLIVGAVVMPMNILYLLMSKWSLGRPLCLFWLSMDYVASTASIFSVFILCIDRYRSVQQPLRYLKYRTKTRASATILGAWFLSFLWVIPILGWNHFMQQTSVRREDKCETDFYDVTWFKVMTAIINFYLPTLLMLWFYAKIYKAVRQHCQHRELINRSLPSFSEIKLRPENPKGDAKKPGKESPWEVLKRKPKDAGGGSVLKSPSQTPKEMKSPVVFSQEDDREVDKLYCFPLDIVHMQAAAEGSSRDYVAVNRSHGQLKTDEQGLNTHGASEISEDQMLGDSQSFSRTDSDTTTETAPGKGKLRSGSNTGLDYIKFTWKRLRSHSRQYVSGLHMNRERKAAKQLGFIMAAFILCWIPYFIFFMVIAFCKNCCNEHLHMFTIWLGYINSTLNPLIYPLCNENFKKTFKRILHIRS

Imidazoline I2, Central = assay: Receptor binding assay panel: Imidazoline I2, Central; parameters: species or system rat; conditions: 10 μM
Experimental: as §1

Insulin = Insulin (Rattus norvegicus (Rat), UniProt P15127); assay: Receptor binding assay panel: Insulin
Opiate μ (OP3, MOP) = Opiate μ (OP3, MOP) (Homo sapiens (Human), UniProt P35372); assay: Receptor binding assay panel: Opiate μ (OP3, MOP)
Experimental: as §1

hERG potassium channel = hERG potassium channel (Homo sapiens (Human), UniProt Q12809); assay: Receptor binding assay panel: Potassium Channel hERG; conditions: crude membrane preparations
Experimental: as §1

Progesterone PR-B = Progesterone PR-B (Homo sapiens (Human), UniProt P06401); assay: Receptor binding assay panel: Progesterone PR-B
Sigma σ1 = Sigma σ1 (Homo sapiens (Human), UniProt Q99720); assay: Receptor binding assay panel: Sigma σ1
Chain of Sigma σ1 (Q99720 whole entry): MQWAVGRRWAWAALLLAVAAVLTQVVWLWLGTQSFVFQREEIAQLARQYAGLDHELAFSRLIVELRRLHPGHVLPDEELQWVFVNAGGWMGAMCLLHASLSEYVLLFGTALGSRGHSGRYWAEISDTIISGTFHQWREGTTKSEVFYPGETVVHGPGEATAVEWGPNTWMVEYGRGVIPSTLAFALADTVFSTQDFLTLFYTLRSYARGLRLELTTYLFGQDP

in vivo = assay: in vivo; parameters: dose or concentration left out as unconfirmed; conditions: rat
CYP450, 19 (CYP19) = CYP450, 19 (CYP19) (Homo sapiens (Human), UniProt P11511); assay: Receptor binding assay panel: CYP450, 19
Chain of CYP450, 19 (CYP19) (P11511 whole entry, the tested form may be a part): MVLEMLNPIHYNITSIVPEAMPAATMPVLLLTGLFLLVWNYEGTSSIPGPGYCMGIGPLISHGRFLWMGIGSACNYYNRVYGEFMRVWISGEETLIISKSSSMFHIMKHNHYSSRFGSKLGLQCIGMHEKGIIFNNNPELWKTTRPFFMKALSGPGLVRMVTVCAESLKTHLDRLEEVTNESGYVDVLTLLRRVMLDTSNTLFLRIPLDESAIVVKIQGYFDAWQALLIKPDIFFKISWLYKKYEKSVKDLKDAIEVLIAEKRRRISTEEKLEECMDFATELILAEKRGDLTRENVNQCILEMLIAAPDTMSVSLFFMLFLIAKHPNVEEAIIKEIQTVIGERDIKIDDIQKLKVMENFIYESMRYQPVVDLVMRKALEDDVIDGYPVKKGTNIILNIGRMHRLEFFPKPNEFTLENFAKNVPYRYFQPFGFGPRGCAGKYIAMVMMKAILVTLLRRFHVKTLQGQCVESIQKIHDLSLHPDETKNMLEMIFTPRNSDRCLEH

[5] = after 15 min IV infusion 0.2 mg/kg/min
[6] = after 30 min IV infusion 0.2 mg/kg/min

SMILES: C[C@]12CC[C@H](CC(=O)O)CC1C(O)CC1C2CC[C@]2(C)C(=O)CCC12 (stereo in doubt) [CVie216-salt, 2-(6beta-hydroxy-17-oxoandrostane-3-yl) acetic acid]
- LD50 at 24 h ([1]; iv): > 300 mg/kg
- LD50 at 24 h ([1]; oral, os): > 700 mg/kg
- diastolic function (in words) (STZ diabetic rats; IV infusion): ameliorated diastolic function
- overall cardiac function, SV and CO (in words) (STZ diabetic rats; IV infusion): improvement
- A late filling velocity of mitral inflow (STZ diabetic rats; [5]): 0.66 ± 0.17 m/s
- CO cardiac output (STZ diabetic rats; [5]): 165.45 ± 30.9 mL/min
- DT deceleration time of E wave (STZ diabetic rats; [5]): 49.72 ± 12.56 ms
- DT/E mitral deceleration index (STZ diabetic rats; [5]): 56.52 ± 16.45 s2/m
- E early filling velocity of mitral inflow (STZ diabetic rats; [5]): 0.90 ± 0.13 m/s
- E/A index of LV function (STZ diabetic rats; [5]): 1.42 ± 0.28
- E/DT deceleration slope (STZ diabetic rats; [5]): 19.76 ± 8.27 m/s2
- E/e′ index of LV filling pressure (STZ diabetic rats; [5]): 39.08 ± 5.04
- FS fractional shortening (STZ diabetic rats; [5]): 56.29 ± 9.95%
- HR heart rate (STZ diabetic rats; [5]): 221 ± 50 beat/min
- SV stroke volume (STZ diabetic rats; [5]): 0.76 ± 0.12 ml/beat
- a′ TDI late relaxation velocity (STZ diabetic rats; [5]): 25.85 ± 6.98 cm/s
- e′ TDI early relaxation velocity (STZ diabetic rats; [5]): 23.1 ± 1.96 cm/s
- s′ TDI contraction velocity (STZ diabetic rats; [5]): 22.47 ± 2.45 cm/s
- A late filling velocity of mitral inflow (STZ diabetic rats; [6]): 0.68 ± 0.15 m/s
- CO cardiac output (STZ diabetic rats; [6]): 181.82 ± 23.75 mL/min
- DT deceleration time of E wave (STZ diabetic rats; [6]): 47.46 ± 10.17 ms
- DT/E mitral deceleration index (STZ diabetic rats; [6]): 54.8 ± 12.84 s2/m
- E early filling velocity of mitral inflow (STZ diabetic rats; [6]): 0.87 ± 0.09 m/s
- E/A index of LV function (STZ diabetic rats; [6]): 1.34 ± 0.27
- E/DT deceleration slope (STZ diabetic rats; [6]): 19.38 ± 5.39 m/s2
- E/e′ index of LV filling pressure (STZ diabetic rats; [6]): significantly reduced
- FS fractional shortening (STZ diabetic rats; [6]): 55.19 ± 7.32%
- HR heart rate (STZ diabetic rats; [6]): 225 ± 50 beat/min
- SV stroke volume (STZ diabetic rats; [6]): 0.83 ± 0.15 ml/beat
- a′ TDI late relaxation velocity (STZ diabetic rats; [6]): 26.66 ± 6.94 cm/s
- e′ TDI early relaxation velocity (STZ diabetic rats; [6]): 24.48 ± 2.1 cm/s
- s′ TDI contraction velocity (STZ diabetic rats; [6]): 22.68 ± 3.18 cm/s
- % inhib (Phosphodiesterase PDE3): −25%
- inhibition at 10 µM [2]: 13%
- inhibition at 10 µM (Adenosine A2A): -1%
- inhibition at 10 µM (Adrenergic α1A): 5%
- inhibition at 10 µM (Adrenergic α1B): 6%
- inhibition at 10 µM (Aldosterone): -3%
- % inhib [3]: −20%
- inhibition at 10 µM (Estrogen ERα): -3%
- % inhib [4]: 1%
- inhibition at 10 µM (Histamine H1): 12%
- % inhib (Imidazoline I2, Central): 1%
- inhibition at 10 µM (Insulin): 4%
- inhibition at 10 µM (Opiate μ (OP3, MOP)): 11%
- inhibition at 10 µM (hERG potassium channel): 0%
- inhibition at 10 µM (Progesterone PR-B): 1%
- inhibition at 10 µM (Sigma σ1): 2%
- bioavailability (in vivo): 16.9%
- inhibition at 10 µM (CYP450, 19 (CYP19)): 0%
